# Source: patent US20030021796A1, “Method of enhancing T cell immunity by selection of antigen specific T cells” (priority 2001, published 2003)
# Entries after “also recorded” stand apart in the source; their conditions may differ. Residues, ends and D or L forms follow the SMILES beside them.
# Assays:
# [1] = tested on: transgenic CD4^+ thymocytes; test: Positive selection of CD4^+ thymocytes after peptide injection into TCR^TgTCRα^−H2-M^−Ii^− mice (flow cytometry of thymus); assay type: in vivo, mouse; conditions: for percentage of CD4^+ single positive cells (thymus): 3 days after peptide injection; for effect on thymic selection: exogenous peptides without agonist properties; for positive selection of transgenic thymocytes: i.p., non-deleting dose (20 μg)
# Excerpt: Mice. The TCR genes were cloned from T cell hybridoma specific for analogs of the PCC(43-58) peptide and expressed in VA-hCD2 cassette (Ignatowicz et al., 1997; Kraj et al., 2001; Zhumabekov et al., 1995). All TCR transgenic mice were made by co-microinjection of the respective […] and TCRβ constructs into fertilized eggs of F1 (C57BL/6×CBA/Ca) mice. TCR Tg mice were crossed to C57B16/TCRα^− (Jackson Laboratory, ME) mice and to mice deficient in H2-M (kindly provided by E. Bikoff and R. Germain) and Ii (kindly provided by L. van Kaer) to obtain TCR^TgTCRα^− H2-M^−Ii^−.
# (§1) Flow cytometry analysis. Monoclonal antibodies specific for CD4(RM4-5), CD8(53-6.7), VβB8(F23.1), CD69(H1.2F3), CD44(IM7) and CD62L(MEL-14) were purchased from PharMingen (San Diego, Calif.) and used according to manufacturer's recommendations. Cells were analyzed using a FACSCalibur instrument (Becton Dickinson, San Jose, Calif.) and CellQuest software. For intracellular stain cells were first stained for CD4 and CD8, fixed in 2% paraformaldehyde, permeabilized in 0.1% Tween-20 and stained with anti-bcl-2 antibody (Pharmingen) according to manufacturer instruction.
# (§2) Peptide injections and surgical procedures. TCR^TgTCRα^− and TCR^TgTCRαH2-M^−Ii^− were injected i.p. with agonist and control peptides dissolved in PBS. After indicated time mice were sacrificed, thymus and lymph nodes were collected and single cell suspensions were prepared. Pups were injected with 2 μg of peptide subcutaneously 12-24 hours after birth and thymi were transplanted into recipient mice 24 hours after injection. 5-8 week old TCR^TgTCRα^− H2-M^−Ii^− mice were used for thymectomy or as thymic transplant recipients. Surgical procedures were performed as described (Coligan et al., 1997). Mice were handled according with the institutional guidance.
# [2] = tested on: lymph node cells; test: Repopulation of peripheral lymph nodes in peptide-injected TCR^TgTCRα^−H2-M^−Ii^− mice; assay type: in vivo, mouse; conditions: for percentage of CD4^+ positive cells (lymph node): analyzed 12 days after injection
# Method: as §1, §2
# [3] = tested on: TCR^TgTCRα^− lymph node cells; test: Proliferation of TCR transgenic lymph node cells stimulated with agonist peptides ([3H]thymidine incorporation); assay type: cell-based, mouse; conditions: for agonist potency / agonist properties: in vitro stimulation of transgenic T cells; for recognition by the transgenic TCR / stimulation of transgenic cells: peptides presented by irradiated C57BL6 splenocytes
# Method: Antigen response of TCR transgenic cells. Proliferation of lymph node cells isolated from TCR^TgTCRα^−and TCR^TgTCRα^−2-M^−Ii^− mice injected with the selecting peptide was measured in response to antigen. Response of the TCR^TgTCRα^− lymph node cells to different agonist peptides was measured by proliferation assay in a 96-well plate. 10^5 responder cells were stimulated with peptides presented by 5×10^5 irradiated C57BL6 splenocytes. Agonist peptides were used at concentrations of 0.01, 0.1, 0.5, 1.0, 2.5, 5.0, 10.0 and 20.0 μM. After 3 days cells were pulsed with 1 μCi of [^3H]thymidine added to each well and after 18 hours thymidine incorporation was measured. The sequences of peptides used were: PCC50V (AEGFSYTVANKNKGIT), PCC50L (AEGFSYTLANKNKGIT), PCC50V54A (AEGFSYTVANKAKGIT), PCC46A49A50V54A (AEGASYAVANKAKGIT), PCC50F54A (AEGFSYTFANKAKGIT), neutral ceramidase (AGFFQYTLYILASEG) and IgGVH (NADFKTPATLTVDKA). All peptides were synthesized by FMOC (fluorenyl methoxycarbonyl) chemistry and purified by reversed-phase high-performance liquid chromatography. To compare the antigenic response of CD4^+ TCR Tg cells lymph node cells were collected from TCR^TgTCRα^− and TCR^TgTCRα^−H2-M^−Ii^− mice two weeks after peptide injection. Single cell suspensions were prepared and CD4^+ cells were sorted using magnetic beads coated with anti CD4 antibodies (MACS). Purity of sorted cells exceeded 85%. 2×10^4 of purified CD4^+ cells were used in proliferation assay. Cells were stimulated with increasing concentrations of agonist peptides presented by APCs from wild type or H2-M^−Ii^− mice. IgGVH derived peptide (20 μM) was used as a negative control. Peptides were presented by irradiated splenocytes from a C57BL6 mouse. Proliferation was measured after 3 days by thymidine incorporation by pulsing cells with 1 μCi of [^3H] thymidine for 18 hours. Antagonism assay was done by prepulsing 5×10^5 antigen-presenting cells per well for 2 hr. with 5 μM of the antigenic peptide PCC50V54A, washing, and then exposing them to varying concentrations of peptide analogs with 2×10^4 purified CD4^+ TCR^Tg lymphocytes as responder cells (Lyons et al., 1996). For antagonism assays the percent of proliferation inhibition was calculated as 100-100*(thymidine incorporation in the presence of antagonist/thymidine incorporation in the absence of antagonist) (Lyons et al., 1996).
# [4] = tested on: transgenic thymocytes; test: Negative selection of transgenic thymocytes after i.p. peptide injection into TCR^TgTCRα^− mice (wild type A^b); assay type: in vivo, mouse; conditions: 24 hours; for negative selection / deletion of transgenic thymocytes: 200 μg/mouse i.p.
# Method: as §1, §2
# Characterization of peptide agonists for the PCC specific transgenic αβTCR. To examine the role of peptides during positive selection in vivo, the inventors generated transgenic mice expressing class II restricted TCR specific for analogs of a pigeon cytochrome C peptide PCC(43-58) presented by the A molecule (Kraj et al., 2001). This receptor recognizes analogs of PCC(43-58) in which aspartic acid in position 50 is replaced by amino acids with neutral/hydrophobic (PCC50V, PCC50V54A, PCC46A49A50V54A, PCC50L, PCC50F) side chains (FIG. 6 and FIG. 9). The TCR transgenic mice were backcrossed to C57BL6 TCRα^− knockout mice so that almost all T cells expressing transgenic TCR become CD4^+ T cells (FIG. 4A and FIG. 10A). Initially, the inventors examined the capacity of agonist peptides to induce negative selection of transgenic T cells.
# [5] = tested on: OT-II transgenic thymocytes; test: Selection of OT-II transgenic thymocytes in OT-II TCRα^−→TCRα^−H2M^−Ii^− chimeras after peptide injection; assay type: in vivo, mouse
# Excerpt: OT-II agonist peptide may be used for positive selection of transgenic CD4^+ cells. Injection of a low dose of agonist peptides restores positive selection of OT-II transgenic CD4^+ T cells in […] →TCRα^−2-M^−Ii^− chimeras. OT-II transgenic mice (C57BL/6TgN(TcrOva)) express a Class II restricted T cell receptor for ovalbumin residues 323-339 in the context of H-2^b. To determine if the experimental approach can be applied to other transgenic CD4^+ T cells, radiation chimeras were generated where TCRα^−H2-H2-M^−Ii^− mice were lethally irradiated and reconstituted with fetal liver from OT-II^TgTCRα^− mice. In these chimeras the development of OT-II^TgTCRα^− thymocytes is arrested at the CD4^+CD8^+ stage due to the lack of endogenous selecting peptides. After 8 weeks chimeras were injected once with different doses of the agonist Ova(323-339) peptide, which is a peptide present in the ovalbumin protein.
# [6] = tested on: peptide selected CD4^+ cells; test: Antigen response (proliferation) of lymph node CD4^+ cells from peptide-injected TCR^TgTCRα^−H2-M^−Ii^− mice; assay type: cell-based, mouse
# Method: Antigen response of TCR transgenic cells. Proliferation of lymph node cells isolated from TCR^TgTCRα^−and TCR^TgTCRα^−2-M^−Ii^− mice injected with the selecting peptide was measured in response to antigen. Response of the TCR^TgTCRα^− lymph node cells to different agonist peptides was measured by proliferation assay in a 96-well plate. 10^5 responder cells were stimulated with peptides presented by 5×10^5 irradiated C57BL6 splenocytes. Agonist peptides were used at concentrations of 0.01, 0.1, 0.5, 1.0, 2.5, 5.0, 10.0 and 20.0 μM. After 3 days cells were pulsed with 1 μCi of [^3H]thymidine added to each well and after 18 hours thymidine incorporation was measured. The sequences of peptides used were: PCC50V (AEGFSYTVANKNKGIT), PCC50L (AEGFSYTLANKNKGIT), PCC50V54A (AEGFSYTVANKAKGIT), PCC46A49A50V54A (AEGASYAVANKAKGIT), PCC50F54A (AEGFSYTFANKAKGIT), neutral ceramidase (AGFFQYTLYILASEG) and IgGVH (NADFKTPATLTVDKA). […] Proliferation was measured after 3 days by thymidine incorporation by pulsing cells with 1 μCi of [^3H] thymidine for 18 hours. […] For antagonism assays the percent of proliferation inhibition was calculated as 100-100*(thymidine incorporation in the presence of antagonist/thymidine incorporation in the absence of antagonist) (Lyons et al., 1996).
compound,measurement,setting,value
"NADFKTPATLTVDKA [IgGVH, reference compound]",percentage of CD4^+ single positive cells (thymus),[1]; 50 μg i.p.,0.8±0.4 percentage
same,effect on thymic selection,[1],had no effect on thymic selection
same,percentage of CD4^+ positive cells (lymph node),[2],2.4±0.8 percentage
"AEGFSYTLANKNKGIT [PCC50L, analog of PCC(43-58)]",agonist potency / agonist properties,[3],Strong agonists
same,recognition by the transgenic TCR / stimulation of transgenic cells,[3],recognizes; also recorded: stimulate
same,negative selection / deletion of transgenic thymocytes,[4],induced profound negative selection
same,positive selection of transgenic thymocytes,[1],restored positive selection
"Ova(323-339): peptide present in the ovalbumin protein; agonist for the OT-II TCR (KISQAVHAAHAEINEAG; UniProt P01012 323-339, looked up, fragment)",effect on thymic selection,[1],had no effect on thymic selection
same,negative selection of transgenic thymocytes,[5]; high dose (100 μg and above),induced negative selection
same,selection of CD4^+ thymocytes,[5]; low dose (5-20 μg),induced selection of a significant number of CD4^+ thymocytes
same,response of selected thymocytes to selecting peptide,"[5]; mouse, in vivo",continued to respond to stimulation by selecting peptide; also recorded: retain their ability to respond to selecting peptide
same,selection of transgenic CD4^+ thymocytes,"[5]; single injection of 10 μg, 48 and 72 hours",initiates selection of transgenic CD4^+Vβ5^+ thymocytes
"AEGASYAVANKAKGIT [PCC46A49A50V54A, analog of PCC(43-58); agonist]",recognition by the transgenic TCR / stimulation of transgenic cells,[3],recognizes
same,positive selection of transgenic thymocytes,[1],restored positive selection
AGFFQYTLYILASEG [neutral ceramidase],agonist potency / agonist properties,[3],weak agonist
same,positive selection of transgenic CD4^+ thymocytes,[1]; 50 μg i.p.,weak positive selection; also recorded: mediates positive selection
same,percentage of CD4^+ single positive cells (thymus),[1]; 50 μg i.p.,1.7±0.6 percentage
same,CD4^+ cells in peripheral lymph nodes,"[2]; after i.p. injection, about two weeks",appeatence of CD4^+ lymphocytes in the peripheral lymph nodes
same,percentage of CD4^+ positive cells (lymph node),[2],7.6±1.8 percentage
same,response of peptide selected CD4^+ cells to agonist peptides in vitro,[6],weakly proliferated; also recorded: respond in vitro
CC[C@H](C)[C@H](NC(=O)CNC(=O)[C@H](CCCCN)NC(=O)[C@H](CC(N)=O)NC(=O)[C@H](CCCCN)NC(=O)[C@H](CC(N)=O)NC(=O)[C@H](C)NC(=O)[C@H](CCC(=O)O)NC(=O)[C@@H](NC(=O)[C@H](Cc1ccc(O)cc1)NC(=O)[C@H](CO)NC(=O)[C@H](Cc1ccccc1)NC(=O)CNC(=O)[C@H](CCC(=O)O)NC(=O)[C@H](C)N)[C@@H](C)O)C(=O)N[C@H](C(=O)O)[C@@H](C)O [PCC50E] (H-AEGFSYTEANKNKGIT-OH),number of CD4^+ thymocytes positively selected by PCC50V54A on co-injection of antagonist,"[1]; 3 μg antagonist + 3 μg PCC50V54A, four days later",significantly reduced
"AEGFSYTVANKNKGIT [PCC50V, analog of PCC(43-58)]",agonist potency / agonist properties,[3],moderate agonist
same,recognition by the transgenic TCR / stimulation of transgenic cells,[3],recognizes; also recorded: stimulate
same,negative selection of transgenic thymocytes,"[4]; 20 μg i.p., thymus cellularity, annexin V, TUNNEL",did not induce negative selection
same,negative selection / deletion of transgenic thymocytes,[4],induced only marginal deletion; also recorded: induced only limited deletion
same,positive selection of transgenic thymocytes,[1],restored positive selection
"AEGFSYTFANKAKGIT [PCC50F54A, analog of PCC(43-58); agonist]",recognition by the transgenic TCR / stimulation of transgenic cells,[3],stimulate
same,positive selection of transgenic thymocytes,[1],restored positive selection
